According to publication PMC8805605, “Discovery of Dimeric Arylsulfonamides as Potent ADAM8 Inhibitors” (ACS Medicinal Chemistry Letters, 2021):

Experiments:
Assay type in all cases: biochemical
ADAM17 = molecular target: T1, ADAM17 (Homo sapiens, UniProt P78536); assay: ADAM17 fluorometric inhibition assay; details: recombinant enzyme, mean of three independent experiments in duplicate, read-out: In vitro inhibitory activity IC50 on ADAM17
T1 construct: kind gift of Franka Scharfenberg, University of Kiel
Procedure: The newly synthesized bivalent derivatives 1–3 were then tested in vitro on human recombinant ADAM8 in comparison with JG26 by a fluorometric assay. The inhibitory activity against a panel of MMPs and ADAM10/17 was determined as well to assess their selectivity profile.
(§1) (RFU). Percent of inhibition was calculated from control reactions without the inhibitor. IC50 was determined using the formula: v i/v o = 1/(1 + [I]/ IC50), where v i is the initial velocity of substrate cleavage in the presence of the inhibitor at concentration [I] and v o is the initial velocity in the absence of the inhibitor. Results were analyzed using SoftMax Pro software (version 5.4.3, Molecular Devices, Sunnyvale, CA) and Prism Software version 5.0 (GraphPad Software, Inc., La Jolla, CA, USA).
ADAM8 and ADAM17 inhibition assays
Recombinant ADAM8 and ADAM17 (kind gift of Franka Scharfenberg, University of Kiel) were diluted in assay buffer (25 mM Tris HCl, pH 8.0. 6x10-4 % Brij, 10 mM CaCl2, 10 mM ZnCl2) to a working concentration of 250 ng and incubated with inhibitors for 45 min in a total volume of 50 µL.
The fluorescent substrate PepDAB1310 was added in a concentration of 10 µM (in a volume of 50 µL). […]

ADAM10 = molecular target: T2, ADAM10 (Homo sapiens, UniProt O14672); assay: ADAM10 fluorometric inhibition assay; details: mean of three independent experiments in duplicate, read-out: In vitro inhibitory activity IC50 on ADAM10
T2 construct: purchased R&D Systems
T2 sequence (O14672 214-748): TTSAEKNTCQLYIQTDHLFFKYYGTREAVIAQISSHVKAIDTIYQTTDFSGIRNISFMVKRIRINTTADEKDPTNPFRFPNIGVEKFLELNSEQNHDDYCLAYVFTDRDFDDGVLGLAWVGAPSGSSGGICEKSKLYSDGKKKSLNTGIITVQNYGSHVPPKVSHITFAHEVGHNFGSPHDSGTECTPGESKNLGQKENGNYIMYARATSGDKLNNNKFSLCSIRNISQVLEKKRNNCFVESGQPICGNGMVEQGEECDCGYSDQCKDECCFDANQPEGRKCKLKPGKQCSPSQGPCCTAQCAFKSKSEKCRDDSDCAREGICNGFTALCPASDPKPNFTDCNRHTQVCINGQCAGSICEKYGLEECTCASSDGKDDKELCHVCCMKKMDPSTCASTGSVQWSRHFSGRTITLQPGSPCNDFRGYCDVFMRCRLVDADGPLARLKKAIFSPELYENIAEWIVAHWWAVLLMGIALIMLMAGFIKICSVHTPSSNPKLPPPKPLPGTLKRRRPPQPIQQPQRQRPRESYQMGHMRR
Procedure: (§2) The newly synthesized bivalent derivatives 1–3 were then tested in vitro on human recombinant ADAM8 in comparison with JG26 by a fluorometric assay. The inhibitory activity against a panel of MMPs and ADAM10/17 was determined as well to assess their selectivity profile. […]
(§3) VI. Biological Activity on Isolated Enzymes
(§4) MMP and ADAM10 inhibition assays.
(§5) Recombinant human MMP-14 catalytic domain was a kind gift of Prof. Gillian Murphy (Department of […]
(§6) Oncology, University of Cambridge, UK). Pro-MMP-1, pro-MMP-2, and pro-MMP-9, were purchased […]
(§7) from Calbiochem (Merck-Millipore). Pro-MMP-12 and ADAM10 were purchased from R&D Systems.
(§8) Proenzymes were activated immediately prior to use with p-aminophenylmercuric acetate (APMA 2 […]
(§9) mM for 1 h at 37°C for MMP-2 and MMP-1, 1 mM for 1 h at 37°C for MMP-9). Pro-MMP-12 was […]
(§10) auto activated by incubating in the fluorometric assay buffer (FAB: Tris 50 mM, pH = 7.5, NaCl 150 […]
(§11) mM, CaCl2 10 mM, Brij 35 0.05% and DMSO 1%) for 30 h at 37°C. For assay measurements, each […]
(§12) inhibitor stock solution (DMSO, 10 mM) was further diluted in FAB at seven different concentrations.
(§13) Activated enzyme (final concentration 0.56 nM for MMP-2, 1.3 nM for MMP-9, 1.0 nM for MMP- […]
(§14) 14cd, 2.0 nM for MMP-1, 2.3 nM for MMP-12 and 20 nM for ADAM10) and inhibitor solutions were […]
(§15) incubated in the assay buffer for 3 h at 25 °C. ADAM10 was incubated for 1 h at 37°C in a different […]
(§16) buffer at pH 9 (Tris 25 mM, ZnCl2 25 µM, Brij-35 0.005 %). After the addition of 200 µM solution of […]
(§17) the fluorogenic substrate Mca-Lys-Pro-Leu-Gly-Leu-Dap(Dnp)-Ala-Arg-NH2 (Bachem) for all the […]
(§18) enzymes in DMSO (final concentration 2 µM for all enzymes, 10 µM for ADAM10), the hydrolysis […]
(§19) was monitored every 10 sec. for 15 min. recording the increase in fluorescence (λ ex = 325 nm, λ em = […]
(§20) 400 nm) using a Molecular Devices SpectraMax Gemini XPS plate reader. The assays were performed […]
(§21) in triplicate in a total volume of 200 μL per well in 96-well microtitre plates (Corning, black, NBS).
(§22) Control wells lack inhibitor. The MMP inhibition activity was expressed in relative fluorescent units […]
as §1
ADAM8 and ADAM17 inhibition assays […]

MMP-9 = molecular target: T3, MMP-9 (Homo sapiens, UniProt P14780); assay: MMP-9 fluorometric inhibition assay; details: mean of three independent experiments in duplicate, read-out: In vitro inhibitory activity IC50 on MMP-9
T3 construct: purchased Calbiochem (Merck-Millipore)
Procedure: as §2, §3, §4, §5, §6, §7, §8, §9, §10, §11, §12, §13, §14, §15, §16, §17, §18, §19, §20, §21, §22
as §1, with “USA). […]” for “USA).”

T3 sequence (P14780 107-707 limits assumed, species assumed): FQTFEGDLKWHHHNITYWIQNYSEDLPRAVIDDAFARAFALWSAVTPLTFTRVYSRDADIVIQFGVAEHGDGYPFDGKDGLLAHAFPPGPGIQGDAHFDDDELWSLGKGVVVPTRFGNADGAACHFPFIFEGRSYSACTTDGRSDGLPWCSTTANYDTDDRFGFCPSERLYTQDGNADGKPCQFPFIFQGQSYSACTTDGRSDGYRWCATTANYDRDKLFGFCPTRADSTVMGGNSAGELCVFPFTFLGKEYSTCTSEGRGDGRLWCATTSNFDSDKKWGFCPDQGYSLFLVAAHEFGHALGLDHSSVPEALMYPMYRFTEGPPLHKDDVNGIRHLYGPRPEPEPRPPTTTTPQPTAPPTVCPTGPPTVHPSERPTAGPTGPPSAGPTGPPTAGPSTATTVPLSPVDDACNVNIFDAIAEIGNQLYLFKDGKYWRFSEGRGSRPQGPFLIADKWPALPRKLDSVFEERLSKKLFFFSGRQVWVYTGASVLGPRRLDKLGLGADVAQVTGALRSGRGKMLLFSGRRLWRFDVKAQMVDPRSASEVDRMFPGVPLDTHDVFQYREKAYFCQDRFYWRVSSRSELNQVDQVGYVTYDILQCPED
T1 sequence (P78536 215-824, species assumed): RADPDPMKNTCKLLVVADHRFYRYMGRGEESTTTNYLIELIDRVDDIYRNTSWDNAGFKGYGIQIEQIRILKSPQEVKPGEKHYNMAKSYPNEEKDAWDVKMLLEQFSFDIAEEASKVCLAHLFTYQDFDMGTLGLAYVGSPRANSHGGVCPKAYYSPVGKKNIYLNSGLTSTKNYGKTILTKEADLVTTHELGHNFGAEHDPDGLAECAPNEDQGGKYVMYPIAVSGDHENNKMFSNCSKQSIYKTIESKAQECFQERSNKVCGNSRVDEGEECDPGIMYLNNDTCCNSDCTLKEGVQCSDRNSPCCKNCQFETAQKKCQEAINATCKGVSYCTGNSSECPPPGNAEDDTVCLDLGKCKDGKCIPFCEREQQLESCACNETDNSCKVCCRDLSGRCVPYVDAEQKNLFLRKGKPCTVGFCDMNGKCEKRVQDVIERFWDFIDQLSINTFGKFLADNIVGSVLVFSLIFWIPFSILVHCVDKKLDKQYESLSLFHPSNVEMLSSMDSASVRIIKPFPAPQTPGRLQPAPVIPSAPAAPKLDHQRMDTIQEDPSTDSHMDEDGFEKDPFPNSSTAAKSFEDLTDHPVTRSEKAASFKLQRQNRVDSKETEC

Compound	IC50 (ADAM17)	IC50 (ADAM10)	IC50 (MMP-9)
O=C(CCCNC(=O)c1cccc(C(=O)NCCCC(=O)NCCC[C@@H](NS(=O)(=O)c2ccc(OCc3cc(Br)cc(Br)c3)cc2)C(=O)NO)c1)NCCC[C@@H](NS(=O)(=O)c1ccc(OCc2cc(Br)cc(Br)c2)cc1)C(=O)NO [Compound 1]	0.052 µM	30.6 µM	3.32 µM
O=C(NCCC[C@@H](NS(=O)(=O)c1ccc(OCc2cc(Br)cc(Br)c2)cc1)C(=O)NO)c1cccc(C(=O)NCCC[C@@H](NS(=O)(=O)c2ccc(OCc3cc(Br)cc(Br)c3)cc2)C(=O)NO)c1 [Compound 2]	0.024 µM	10 µM	8.8 µM
O=C(NCCC[C@@H](NS(=O)(=O)c1ccc(OCc2cc(Br)cc(Br)c2)cc1)C(=O)NO)NCCC[C@@H](NS(=O)(=O)c1ccc(OCc2cc(Br)cc(Br)c2)cc1)C(=O)NO [Compound 3]	0.055 µM	27.4 µM	13.5 µM
NC(=O)NCCC[C@@H](NS(=O)(=O)c1ccc(OCc2cc(Br)cc(Br)c2)cc1)C(=O)NO [JG26, reference compound]	0.0019 µM	0.15 µM	1.63 µM
